“Also recorded” adds a separate entry of the source.
How the values were obtained:
[1] = test system: Group B Streptococci; details: 200 ppm gNO; cited from earlier work
[2] = test system: Klebsiella sp.#2; details: 200 ppm gNO; cited from earlier work
[3] = test system: MRSA; details: 200 ppm gNO; cited from earlier work
[4] = test system: infants with acute bronchiolitis; assay: Efficacy (LOS, time to SpO2 >=92%, time to clinical score <=5) of intermittent inhalations of 160 ppm NO in infants with acute bronchiolitis; format: in vivo, human
Description: The study was a randomized, prospective, single center, double blind study of 2-11 month old hospitalized infants with acute bronchiolitis (FIG. 1).
Subjects were screened within 4 hours of admission and randomized (1:1) to receive intermittent inhalations of 160 ppm NO along with standard treatment (NO group) or intermittent inhalations of 02/air mixture and standard treatment (control group), for a maximum of 25 inhalations.
Secondary Outcome: Efficacy parameters: LOS calculated in hours, starting from first inhalation until: 1) Oxygen saturation (SpO2) ≥92% in room-air; 2) Clinical score ≤5 (15, 16) and; 3) blinded physician decision of “ready for discharge”.
The secondary outcome were efficacy measures, including LOS, time to achieve ≥92% SaO2, and time to achieve a clinical score of ≤5. LOS in hours was defined as the time between first treatment until the time the infant was “ready for discharge”, defined as 1. Room air saturation of ≥92%; 2. Clinical severity symptom score (Table E1) of ≤5; 3. A clinical decision made by a blinded pediatrician.
A severity symptom score, was used to determine the severity of each infant (Table E1). The score was comprised of four components: Respiratory rate, use of accessory muscles, wheezes and crackles on auscultation, and % room-air oxygen saturation (SpO2). Each component is given 0 to 3 points, with a total possible score of 12. Infants with a score of <6 were determined as mild and were not included in the study, while infants with a score of >10 were determined as very severe and were also excluded.
Each patient was given 5 inhalations a day of NO (treatment group) or oxygen (control group), along with the standard supportive treatment, for a maximum of 25 inhalations (based on phase I safety data). Each participant was examined and evaluated using the severity symptom score by a blinded pediatricians every […] (9 am and 3 pm). When the room-air SpO2 reached 92%, and the score was ≤5, and the patient was assessed as “ready for discharge”, the treatment was discontinued.
Post-hoc subgroup analyses of subjects with a LOS ≤24 hours and >24 hours were also conducted for the key post-hoc secondary endpoints, for the following reasons: based on preclinical studies, the anti-microbial treatment effect of NO is expected to take approximately 2.5 hours of exposure (i.e., 24 hours treatment). A third of the subjects were discharged after <24 hours in hospital. A longer LOS is expected to correlate with a higher disease severity, and therefore any treatment effect should be more evident in the subgroup LOS >24 hours.
LOS was calculated in hours from the first inhalation treatment to “ready for discharge” defined as physician decision to discharge.
Time to achieve room-air SpO2 of ≥92% (improvement in oxygenation) leading to discharge was calculated from first treatment to the first time of room-air SpO2 of ≥92% sustained until discharge. Time to clinical score of ≤5 was calculated from the first inhalation to the first time the subject reached a clinical score of ≤5.
The following statistical tests were used in the analysis of the data presented in this study: 1. The Paired T-Test was applied for testing the statistical significance of the changes from baseline for quantitative variables within each study group; 2. The two-sample T-test or Non-parametric Wilcoxon Rank Sum test or median tests were used as appropriate for analyzing differences between the study groups in quantitative parameters; 3. The Chi-square test was applied for testing the statistical significance of the differences in frequency of categorical variables between the study groups; 4. Survival analysis using a Kaplan-Meier survival function curve was applied for testing the statistical significance of the difference between the study groups in the following endpoints: LOS, from first inhalation to ready to discharge, time to achieve 92% saturation leading to discharge, and time to achieve clinical score ≤5. […]

[5] = test system: P. aeruginosa (ATCC 27853); details: 200 ppm gNO; cited from earlier work
[6] = test system: S. maltophilia; details: 200 ppm gNO; cited from earlier work
[7] = test system: Klebsiella sp. #1; details: 200 ppm gNO; cited from earlier work
[8] = test system: S. aureus (ATCC 25923); details: 200 ppm gNO; cited from earlier work
[9] = test system: E. coli; details: 200 ppm gNO; cited from earlier work
[10] = test system: S. aureus (Clinical); details: 200 ppm gNO; cited from earlier work
[11] = test system: healthy individuals; details: 160 ppm NO for 30 minutes, 5 times daily, 5 consecutive days; cited from earlier work
[12] = test system: bacteria at 10E5 CFU/ml isolated from patients; details: 200 ppm gNO, cited from earlier work
[13] = test system: Enterobacter sp.; details: 200 ppm gNO; cited from earlier work
[14] = test system: Klebsiella sp. #3; details: 200 ppm gNO; cited from earlier work
[15] = test system: Mycobacterium smegmatis; details: 200 ppm gNO; cited from earlier work
[16] = test system: influenza virions or infected cell (MDCK); details: intermittent (30 minutes every 4 hours) 160 ppm exogenous gaseous NO; MDCK cell model; cited from earlier work
[17] = average of the 13 bacteria above the line

[N]=O [NO, nitric oxide]
+2.5 Log10 [1]: 1.5 hours
LD100 [1]: 2 h
Latent Period [1]: 1 h
+2.5 Log10 [2]: 4.1 hours
LD100 [2]: 5 h
Latent Period [2]: 2 h
+2.5 Log10 [3]: 4.2 hours
LD100 [3]: 5 h
Latent Period [3]: 3 h
Time to first 92% O2 saturation sustained to discharge ([4]; ITT (N=42), NO group, P=0.517 vs control): 35.50 ± 33.73 h
Mean time to reach clinical score of ≤5 ([4]; ITT (N=43), NO group, P=0.621 vs control): 32.83 ± 30.61 h
Median LOS ([4]; ITT including the 16 infants discharged within <24 hours, P=0.65 vs control): 40 h
Length of stay (LOS), mean±SD ([4]; ITT, 43 subjects, NO group, P=0.86 vs control): 43.3 ± 32.95 h
Hazard ratio (HR), time to first sustained 92% O2 saturation ([4]; Kaplan Meier, PP, LOS >24 hours, 95% CI=0.139, 0.921, P=0.028): 0.358
Hazard ratio (HR), time to clinical score ≤5 ([4]; Kaplan-Meier, ITT, LOS >24 hours, 95% CI: 0.161, 0.949, log rank P=0.033): 0.391
Median LOS, post-hoc subgroup ([4]; post-hoc ITT, LOS >24 hours subgroup, P=0.014 vs control): 41.92 h
Clinical benefit of NO versus standard treatment (LOS, time to SpO2 ≥92%, time to clinical score ≤5) ([4]; post-hoc, subgroup LOS >24 hours): statistically significant clinical benefits; also recorded: statistically significant in favor of the NO group; also recorded: statistically significant treatment benefit
+2.5 Log10 [5]: 2.1 hours
LD100 [5]: 3 h
Latent Period [5]: 1 h
+2.5 Log10 [6]: 2.8 hours
LD100 [6]: 4 h
Latent Period [6]: 2 h
+2.5 Log10 [7]: 3.5 hours
LD100 [7]: 6 h
Latent Period [7]: 3 h
+2.5 Log10 [8]: 3.3 hours
LD100 [8]: 4 h
Latent Period [8]: 3 h
+2.5 Log10 [9]: 4.2 hours
LD100 [9]: 5 h
Latent Period [9]: 3 h
+2.5 Log10 [10]: 3.7 hours
LD100 [10]: 4 h
Latent Period [10]: 3 h
Safety and tolerability in healthy individuals [11]: safe and well tolerated
Reduction in CFU/ml for each gNO-exposed organism ([12]; 10E5 CFU/ml): 4-6 Log10 units
+2.5 Log10, Average [12, 17]: 3.82 hours
LD100, Average [12, 17]: 4.77 h
Latent Period, Average [12, 17]: 2.77 h
+2.5 Log10 [13]: 5.3 hours
LD100 [13]: 6 h
Latent Period [13]: 4 h
+2.5 Log10 [14]: 5.1 hours
LD100 [14]: 6 h
Latent Period [14]: 3 h
+2.5 Log10 [15]: 9.2 hours
LD100 [15]: 10 h
Latent Period [15]: 7 h
Effect on influenza viral replication and infectivity [16]: reduced not just viral replication, but also its infectivity

Reference: patent US12274830B2, “Nitric oxide inhalation therapy for infants with bronchiolitis” (BEYOND AIR LTD, priority 2015, dated 2025)
